Data set [1] in a line: as series A (acyl azide from hydrazide, biphasic EtOAc/buffer), isolated after prep HPLC. The note with it: 21-membered ring, aq phosphate buffer (6 M GdmCl) / EtOAc biphasic, 3.0 mM, 0.25 h, 2 steps.
Data set [2] is described as follows: head-to-tail lactamisation of unprotected peptide acyl azide (from C-terminal hydrazide, 20 equiv NaNO2, pH 3, -15 C, then NaHCO3 to pH ~7), biphasic EtOAc/buffer. Conditions: 21-membered ring, aq phosphate buffer (6 M GdmCl, 50 mM NaH2PO4, 1.5 mM EDTA) / EtOAc biphasic, 3.0 mM, 2 steps.
Data set [3] is described as follows: lactamisation (head-to-tail or side-chain-to-tail) of unprotected peptide acyl azide (from hydrazide, 20 equiv NaNO2, pH 3, -15 C, then NaHCO3 to pH ~7), MeCN cosolvent. The note with it: 21-membered ring, aq phosphate buffer (6 M GdmCl) diluted with 2 vol 50% MeCN/water, 2.2 mM, 2 steps.

Compound `CC(C)C[C@@H]1NC(=O)[C@H](CC(C)C)N(C)C(=O)[C@H](C)NC(=O)[C@H](Cc2ccc(O)c([N+](=O)[O-])c2)NC(=O)[C@H](CC(C)C)N(C)C(=O)[C@H](Cc2c[nH]c3ccccc23)NC(=O)[C@H](C)NC1=O` [H-Trp-N-Me-Leu-Tyr(3-NO2)-Ala-N-Me-Leu-Leu-Ala-N3] showed a ring closure, yield over several steps in data set [1] (from CC(C)C[C@H](NC(=O)[C@H](CC(C)C)N(C)C(=O)[C@H](C)NC(=O)[C@H](Cc1ccc(O)c([N+](=O)[O-])c1)NC(=O)[C@H](CC(C)C)N(C)C(=O)[C@@H](N)Cc1c[nH]c2ccccc12)C(=O)N[C@@H](C)C(=O)N=[N+]=[N-]) of 52%. Moreover, in data set [2] (from CC(C)C[C@H](NC(=O)[C@H](CC(C)C)N(C)C(=O)[C@H](C)NC(=O)[C@H](Cc1ccc(O)c([N+](=O)[O-])c1)NC(=O)[C@H](CC(C)C)N(C)C(=O)[C@@H](N)Cc1c[nH]c2ccccc12)C(=O)N[C@@H](C)C(=O)N=[N+]=[N-], 0.25 h), the ring closure, conversion by HPLC was 87%. In the case of `C=CC(C)(C)n1cc(C[C@@H]2NC(=O)[C@H](Cc3ccccc3)NC(=O)[C@H](CC(C)C)NC(=O)[C@H](CC(C)C)N(C)C(=O)[C@H](C)NC(=O)[C@H](Cc3ccc(O)c([N+](=O)[O-])c3)NC(=O)[C@H](CC(C)C)N(C)C2=O)c2ccccc21`, the ring closure, yield over several steps in data set [1] (from C=CC(C)(C)n1cc(C[C@H](N)C(=O)N(C)[C@@H](CC(C)C)C(=O)N[C@@H](Cc2ccc(O)c([N+](=O)[O-])c2)C(=O)N[C@@H](C)C(=O)N(C)[C@@H](CC(C)C)C(=O)N[C@@H](CC(C)C)C(=O)N[C@@H](Cc2ccccc2)C(=O)N=[N+]=[N-])c2ccccc21) came out at 22%. Also, the ring closure, conversion by HPLC in data set [2] (from C=CC(C)(C)n1cc(C[C@H](N)C(=O)N(C)[C@@H](CC(C)C)C(=O)N[C@@H](Cc2ccc(O)c([N+](=O)[O-])c2)C(=O)N[C@@H](C)C(=O)N(C)[C@@H](CC(C)C)C(=O)N[C@@H](CC(C)C)C(=O)N[C@@H](Cc2ccccc2)C(=O)N=[N+]=[N-])c2ccccc21, 0.25 h) stood at 63%. In the case of `C=CC[C@@H]1NC(=O)[C@H](CC(C)C)NC(=O)[C@H](CC(C)C)N(C)C(=O)[C@H]([C@@H](C)O)NC(=O)[C@H](Cc2ccc(O)c([N+](=O)[O-])c2)NC(=O)[C@H](CC(C)C)N(C)C(=O)[C@H](Cc2c[nH]c3ccccc23)NC1=O` [H-Trp-N-Me-Leu-Tyr(3-NO2)-Thr-N-Me-Leu-Leu-allylGly-N3], in data set [1] (from C=CC[C@H](NC(=O)[C@H](CC(C)C)NC(=O)[C@H](CC(C)C)N(C)C(=O)[C@@H](NC(=O)[C@H](Cc1ccc(O)c([N+](=O)[O-])c1)NC(=O)[C@H](CC(C)C)N(C)C(=O)[C@@H](N)Cc1c[nH]c2ccccc12)[C@@H](C)O)C(=O)N=[N+]=[N-]), the ring closure, yield over several steps came to 35%. In addition, the ring closure, conversion by HPLC in data set [2] (from C=CC[C@H](NC(=O)[C@H](CC(C)C)NC(=O)[C@H](CC(C)C)N(C)C(=O)[C@@H](NC(=O)[C@H](Cc1ccc(O)c([N+](=O)[O-])c1)NC(=O)[C@H](CC(C)C)N(C)C(=O)[C@@H](N)Cc1c[nH]c2ccccc12)[C@@H](C)O)C(=O)N=[N+]=[N-], 0.25 h) was found to be 78%.

In data set [1] (from C=CC[C@H](NC(=O)[C@H](CC(C)C)NC(=O)[C@H](CC(C)C)N(C)C(=O)[C@H](C)NC(=O)[C@H](Cc1ccc(O)c([N+](=O)[O-])c1)NC(=O)[C@H](CC(C)C)N(C)C(=O)[C@@H](N)Cc1cn(C)c2ccccc12)C(=O)N=[N+]=[N-]), `C=CC[C@@H]1NC(=O)[C@H](CC(C)C)NC(=O)[C@H](CC(C)C)N(C)C(=O)[C@H](C)NC(=O)[C@H](Cc2ccc(O)c([N+](=O)[O-])c2)NC(=O)[C@H](CC(C)C)N(C)C(=O)[C@H](Cc2cn(C)c3ccccc23)NC1=O` [H-Trp(1-Me)-N-Me-Leu-Tyr(3-NO2)-Ala-N-Me-Leu-Leu-allylGly-N3] returned a ring closure, yield over several steps of 58%. Also, the ring closure, conversion by HPLC in data set [2] (from C=CC[C@H](NC(=O)[C@H](CC(C)C)NC(=O)[C@H](CC(C)C)N(C)C(=O)[C@H](C)NC(=O)[C@H](Cc1ccc(O)c([N+](=O)[O-])c1)NC(=O)[C@H](CC(C)C)N(C)C(=O)[C@@H](N)Cc1cn(C)c2ccccc12)C(=O)N=[N+]=[N-], 0.25 h) was 93%.

For `C=CC[C@@H]1NC(=O)[C@H](CC(C)C)NC(=O)[C@H](CC(C)C)N(C)C(=O)[C@H](C)NC(=O)[C@H](Cc2ccc(O)c([N+](=O)[O-])c2)NC(=O)[C@H](CC(C)C)N(C)C(=O)[C@@H](Cc2cn(C)c3ccccc23)NC1=O`, the ring closure, conversion by HPLC in data set [2] (from C=CC[C@H](NC(=O)[C@H](CC(C)C)NC(=O)[C@H](CC(C)C)N(C)C(=O)[C@H](C)NC(=O)[C@H](Cc1ccc(O)c([N+](=O)[O-])c1)NC(=O)[C@H](CC(C)C)N(C)C(=O)[C@H](N)Cc1cn(C)c2ccccc12)C(=O)N=[N+]=[N-]) stood at 95%.

As to `C=CC[C@@H]1NC(=O)[C@H](CC(C)C)N(C)C(=O)[C@H](C(C)C)NC(=O)[C@H](Cc2ccccc2)NC(=O)[C@H](C)NC(=O)[C@H](CC(C)C)N(C)C(=O)[C@H](Cc2cn(C)c3ccccc23)NC1=O` [H-Trp(1-Me)-N-Me-Leu-Ala-Phe-Val-N-Me-Leu-allylGly-N3], the ring closure, yield over several steps in data set [1] (from C=CC[C@H](NC(=O)[C@H](CC(C)C)N(C)C(=O)[C@@H](NC(=O)[C@H](Cc1ccccc1)NC(=O)[C@H](C)NC(=O)[C@H](CC(C)C)N(C)C(=O)[C@@H](N)Cc1cn(C)c2ccccc12)C(C)C)C(=O)N=[N+]=[N-]) came to 50%. The ring closure, conversion by HPLC in data set [2] (from C=CC[C@H](NC(=O)[C@H](CC(C)C)N(C)C(=O)[C@@H](NC(=O)[C@H](Cc1ccccc1)NC(=O)[C@H](C)NC(=O)[C@H](CC(C)C)N(C)C(=O)[C@@H](N)Cc1cn(C)c2ccccc12)C(C)C)C(=O)N=[N+]=[N-], 0.25 h) was 75%. Turning to `C=CC[C@@H]1NC(=O)[C@H](CC(C)C)NC(=O)[C@H](CC(C)C)N(C)C(=O)[C@H](CO)NC(=O)[C@H](Cc2ccc(O)c([N+](=O)[O-])c2)NC(=O)[C@H](CC(C)C)N(C)C(=O)[C@H](Cc2c[nH]c3ccccc23)NC1=O` [H-Trp-N-Me-Leu-Tyr(3-NO2)-Ser-N-Me-Leu-Leu-allylGly-N3], the ring closure, yield over several steps in data set [1] (from C=CC[C@H](NC(=O)[C@H](CC(C)C)NC(=O)[C@H](CC(C)C)N(C)C(=O)[C@H](CO)NC(=O)[C@H](Cc1ccc(O)c([N+](=O)[O-])c1)NC(=O)[C@H](CC(C)C)N(C)C(=O)[C@@H](N)Cc1c[nH]c2ccccc12)C(=O)N=[N+]=[N-]) came out at 42%. Besides, the ring closure, conversion by HPLC in data set [2] (from C=CC[C@H](NC(=O)[C@H](CC(C)C)NC(=O)[C@H](CC(C)C)N(C)C(=O)[C@H](CO)NC(=O)[C@H](Cc1ccc(O)c([N+](=O)[O-])c1)NC(=O)[C@H](CC(C)C)N(C)C(=O)[C@@H](N)Cc1c[nH]c2ccccc12)C(=O)N=[N+]=[N-], 0.25 h) turned out to be 84%.

Turning to `C=CC[C@@H]1NC(=O)[C@H](CC(C)C)NC(=O)[C@H](CC(C)C)N(C)C(=O)[C@H](C)NC(=O)[C@H](Cc2ccc(O)c([N+](=O)[O-])c2)NC(=O)[C@H](CC(C)C)N(C)C(=O)[C@H](Cc2cn(C(C)(C)C=C)c3ccccc23)NC1=O`, in data set [1] (from C=CC[C@H](NC(=O)[C@H](CC(C)C)NC(=O)[C@H](CC(C)C)N(C)C(=O)[C@H](C)NC(=O)[C@H](Cc1ccc(O)c([N+](=O)[O-])c1)NC(=O)[C@H](CC(C)C)N(C)C(=O)[C@@H](N)Cc1cn(C(C)(C)C=C)c2ccccc12)C(=O)N=[N+]=[N-]), the ring closure, yield over several steps is 56%. Moreover, in data set [3] (from C=CC[C@H](NC(=O)[C@H](CC(C)C)NC(=O)[C@H](CC(C)C)N(C)C(=O)[C@H](C)NC(=O)[C@H](Cc1ccc(O)c([N+](=O)[O-])c1)NC(=O)[C@H](CC(C)C)N(C)C(=O)[C@@H](N)Cc1cn(C(C)(C)C=C)c2ccccc12)C(=O)N=[N+]=[N-], 0.27 h), the ring closure, conversion by HPLC was 90%. Take `C=CC[C@@H]1NC(=O)[C@H](CC(C)C)NC(=O)[C@H](CC(C)C)N(C)C(=O)[C@H](C)NC(=O)[C@H](Cc2ccc(O)c([N+](=O)[O-])c2)NC(=O)[C@H](CC(C)C)N(C)C(=O)[C@H](Cc2cn(C)c3ccccc23)NC1=O` [H-allylGly-Trp(1-Me)-N-Me-Leu-Tyr(3-NO2)-Ala-N-Me-Leu-Leu-N3]: the ring closure, conversion by HPLC in data set [3] (from C=CC[C@H](N)C(=O)N[C@@H](Cc1cn(C)c2ccccc12)C(=O)N(C)[C@@H](CC(C)C)C(=O)N[C@@H](Cc1ccc(O)c([N+](=O)[O-])c1)C(=O)N[C@@H](C)C(=O)N(C)[C@@H](CC(C)C)C(=O)N[C@@H](CC(C)C)C(=O)N=[N+]=[N-], 0.35 h) turned out to be 59%.

(Values after publication PMC11191687.)
